Laboratory results reported in US20260272879A1, “ANION-BINDING AROMATIC OLIGOAMIDE MACROCYCLES AND METHODS OF MAKING AND USING SAME” (The Research Foundation for The State University of New York, priority 2023, published 2026).

Legend:
[1] = Isothermal titration calorimetry (ITC), PF6^−; format: binding; details: 25° C.
Description: (§1) Isothermal titration calorimetry (ITC) experiments were performed using a MicroCal VP-ITC. ITC experiments were conducted by adding ~1.5 mL of a solution containing c5a to the sample cell. Followed by titrating 10 μL aliquots of a solution containing the corresponding TBA·X salt (~10-14× concentration of c5a solution) from the syringe into the sample cell. Heats of dilution were obtained by titrating 10 μL aliquots of the TBA·X solution from the syringe into the sample cell in the absence of c5a. The heats of dilution were subtracted from the raw data. ITC data processing and curve fitting was done using the Origin program (MicroCal).
(§2) Two-step competition ITC experiments for determining the Ka of c5a and iodide. In CH3CN:CHCl3 (5:95, v/v), the binding affinity of c5a for I^− was too high to be determined with direct NMR or ITC titration. Instead, two-step competition ITC experiments with Cl^− as the competitor were performed.

[2] = Isothermal titration calorimetry (ITC), Br^−; format: binding; details: 25° C.
Description: as §1, §2

[3] = 1H NMR titration, binding of IO4^−; details: DMSO-d6:CDCl3 (15:85, v/v), 25° C., NMR titration (protons a and b)
Description: (§3) ^1H NMR titration methods. Titrations of c5a and c5b with anions as their tetra-n-butylammonium (TBA), tetra-ethylammonium (TEA) and tetra-methylammonium (TMA) salts were carried out by ^1H NMR (400 MHz) at 25° C. 0.4 mL of corresponding hosts solutions were prepared in the rubber-cap NMR tubes. Aliquots of concentrated guest solution containing hosts were added into the NMR tubes using 20 microliter pipette. An initial ^1H NMR spectrum was collected and additional spectra were obtained after each injection of guest solution. All titration ^1H NMR spectra were stacked together and the chemical shifts of the internal aromatic CH proton were then fitted to 1:1 binding model using BindFit v0.5 (http://app.supramolecular.org/bindfit/) to evaluate binding constants to anions.

[4] = Isothermal titration calorimetry (ITC), Cl^−; format: binding; details: 25° C.
Description: as §1, §2

[5] = Carrier vs channel chloride transport with DPPC LUVs; format: biochemical; details: HPTS
Description: Differentiation of carrier vs channel chloride transport with DPPC LUVs. An aliquot (20 μL) DPPC LUVs (intravesicular components: 10 mM HEPES, 100 mM NaCl, pH 7.0) was added to 1.98 mL of a buffer comprised of 10 mM HEPES, 100 mM NaCl, pH 7, followed by incubating at 45° C. for 3 min. An aliquot (20 μL) of c5a (0.2 mM) in DMF was added to the LUVs, with the final concentration of c5a being […], and the solution was incubated for an additional 3 min at 45° C. LUVs with c5a were incubated either at 45° C. or 25° C. for 3 minutes.

[6] = Halide transport, lucigenin assay; format: biochemical; details: POPC LUVs, inside 100 mM NaNO3 + 1 mM lucigenin, outside 100 mM NaX, pH 7.0
From the text: Determination of halide transport with the lucigenin assay.

[7] = 1H NMR titration, binding of bromide; details: DMSO-d6:CDCl3 (15:85, v/v), 25° C., NMR titration (protons a and b)
Description: […] […] The titration data were collected by monitoring the changes in chemical shifts of the backbone amide protons and the inner aromatic protons with varying ratios of the anion guests. Job plots indicate that these linear oligoamides and their anion guests bind in a 1:1 stoichiometry.
as §3

[8] = 1H NMR titration, binding of BF4^−; details: DMSO-d6:CDCl3 (15:85, v/v), 25° C., NMR titration (protons a and b)
Description: as §3

[9] = system: Human bronchial epithelial (HBE) cells from cystic fibrosis (CF) patients; assay: Airway surface liquid (ASL) thickness, confocal imaging; format: cell-based; details: CF HBE cultures, c5a 5 μM with 1% DMSO in PBS apically daily for five days
Description: Primary Cell Culture. Human bronchial epithelial (HBE) cells from cystic fibrosis (CF) patients (DF508 homozygous) were obtained from the UNC-CF Tissue Culture Core under the auspices of protocols approved by the UNC Institutional Review Board using previously reported methodologies. Cultures on 12-mm permeable supports (Transwell-Clear; Costar) were maintained in a well-humidified (>95%) incubator (5% CO2) at 37° C. during cellular differentiation (3-4 weeks after plating).
Confocal imaging studies. CF HBE cultures were treated with apically with c5a (5 μM in 1% DMSO) or vehicle control (1% DMSO in PBS) daily for 5 days prior to imaging. The height of the luminal airway surface layer (ASL) was visualized by adding a cell-impermeant dye (Texas Red-dextran 70 kDa; 0.1%) to the c5a and vehicle control on the evening prior to imaging. […] The thickness of the ASL layer in c5a and control cultures were measured by high-speed X-Z confocal scanning. […]
Human bronchial epithelial (HBE) cells isolated from CF patients were cultured at the time of lung transplant as a model system for diseased airways. […] The thickness of the ASL layer on the surface of the HBE cell layer can be conveniently measured by determining the thickness of the fluorescently-labeled fluid layer on the airway surface using X-Z confocal scanning microscopy (FIG. 117b). […]

[10] = Isothermal titration calorimetry (ITC), NO3^−; format: binding; details: DMSO:CHCl3 (5:95, v/v), 25° C.
Description: as §1, §2

[11] = 1H NMR titration, binding of PF6^−; details: DMSO-d6:CDCl3 (15:85, v/v), 25° C., NMR titration (protons a and b)
Description: as §3

[12] = Isothermal titration calorimetry (ITC), I^−; format: binding; details: 25° C.
Description: as §1, §2

**Q.** What does the source list for `CCCCCCCCOCC(C)(C)C(=O)Nc1ccc2cc1C(=O)Nc1ccc(NC(=O)C(C)(C)COCCCCCCCC)c(c1)C(=O)Nc1ccc(NC(=O)C(C)(C)COCCCCCCCC)c(c1)C(=O)Nc1ccc(NC(=O)C(C)(C)COCCCCCCCC)c(c1)C(=O)Nc1ccc(NC(=O)C(C)(C)COCCCCCCCC)c(c1)C(=O)N2` [c5a]?
**A.** Association constant Ka, 1:1 complex with PF6^− ([1]; CH3CN:CHCl3 (5:95, v/v)): (1.23 ± 0.17) × 10^7 M^−1; Association constant Ka, 1:1 complex with PF6^− ([1]; DMSO:CHCl3 (5:95, v/v)): (2.80 ± 0.20) × 10^4 M^−1; Association constant Ka, 1:1 complex with Br^− ([2]; CH3CN:CHCl3 (5:95, v/v)): (1.79 ± 0.34) × 10^7 M^−1; Association constant Ka, 1:1 complex with Br^− ([2]; DMSO:CHCl3 (5:95, v/v)): (1.37 ± 0.04) × 10^4 M^−1; Association constant Ka, 1:1 complex with IO4^− [3]: (1.18 ± 0.08) × 10^4 M^−1; Association constant Ka, 1:1 complex with Cl^− ([4]; CH3CN:CHCl3 (5:95, v/v)): (2.34 ± 0.24) × 10^6 M^−1; Association constant Ka, 1:1 complex with Cl^− ([4]; DMSO:CHCl3 (5:95, v/v)): (1.60 ± 0.10) × 10^4 M^−1; chloride transport into DPPC LUVs ([5]; 25° C. (gel phase), c5a pre-incubated at 45° C.): completely prohibited; chloride transport into DPPC LUVs ([5]; 45° C. (fluid phase)): enhanced halide transport; sequence of halide transport efficiency (reduction of lucigenin fluorescence) [6]: Cl^−>Br^−>I^−; Association constant Ka, 1:1 complex with Br^− [7]: (9.82 ± 1.08) × 10^3 M^−1; Association constant Ka, 1:1 complex with BF4^− [8]: (4.73 ± 0.38) × 10^4 M^−1; increase of ASL thickness vs control CF [9]: more than 50%; ASL thickness ([9]; X-Z confocal): 7.8±1.7 μm; Association constant Ka, 1:1 complex with NO3^− [10]: (1.30 ± 0.10) × 10^6 M^−1; Association constant Ka, 1:1 complex with PF6^− [11]: not detected; Association constant Ka, 1:1 complex with I^− ([12]; CH3CN:CHCl3 (5:95, v/v), two-step competition ITC with Cl^− as the competitor): (6.67 ± 0.81) × 10^7 ^f M^−1; Association constant Ka, 1:1 complex with I^− ([12]; CH3CN:CHCl3 (5:95, v/v), ITC): (7.78 ± 4.26) × 10^7 M^−1; Association constant Ka, 1:1 complex with I^− ([12]; DMSO-d6:CDCl3 (15:85, v/v) column, ITC measurements (footnote d)): (1.18 ± 0.03) × 10^4 ^d M^−1; Association constant Ka, 1:1 complex with I^− ([12]; DMSO:CHCl3 (5:95, v/v), ITC): (1.83 ± 0.08) × 10^5 M^−1
